Test results from ChEMBL document CHEMBL4613311, “Synthesis of Novel G Factor or Chloroquine-Artemisinin Hybrids and Conjugates with Potent Antiplasmodial Activity” (ACS Med Chem Lett, 2020).

Legend:
Plasmodium falciparum [1] = test: Antiplasmodial activity against chloroquine resistant Plasmodium falciparum FcB1/Columbia infected in human erythrocytes preincubated for 24 hrs followed by [3H]-hypoxanthine addition and measured after 24 hrs by liquid scintillation analysis; assay type: functional, organism-based
[2] = Selectivity index, ratio of IC50 for human AB943 cells to IC50 for antiplasmodial activity against chloroquine resistant Plasmodium falciparum FcB1/Colombia infected in human erythrocytes; assay type: toxicity, cell-based; conditions: read-out: Ratio IC50
Plasmodium falciparum [3] = test: Antiplasmodial activity against chloroquine resistant Plasmodium falciparum FcB1/Columbia infected in human erythrocytes at 10 nM preincubated for 24 hrs followed by [3H]-hypoxanthine addition and measured after 24 hrs by liquid scintillation analysis relative to control; assay type: functional

SMILES | IC50 (Plasmodium falciparum [1]) | selectivity ratio [2] | inhibition at 0.01 µM (Plasmodium falciparum [3])
COC12OOC3(C=C1C(=O)C(C)(C)C(=O)C2(C)C)CCN(C(=O)CCC(=O)N(CCCCNC(=O)CC[C@H]1O[C@@H]2O[C@@]4(C)CC[C@H]5[C@H](C)CC[C@@H]([C@H]1C)[C@@]25OO4)CCCCNC(=O)CC[C@H]1O[C@@H]2O[C@@]4(C)CC[C@H]5[C@H](C)CC[C@@H]([C@H]1C)[C@@]25OO4)CC3 (stereo partly drawn) | 0.0106 µM | 983 | –
C[C@H]1[C@@H](CCC(=O)NCCCCN(CCCCNC(=O)CC[C@H]2O[C@@H]3O[C@@]4(C)CC[C@H]5[C@H](C)CC[C@@H]([C@H]2C)[C@@]35OO4)C(=O)CCC(=O)NCCNc2ccnc3cc(Cl)ccc23)O[C@@H]2O[C@@]3(C)CC[C@H]4[C@H](C)CC[C@@H]1[C@@]24OO3 | 0.0523 µM | 328 | –
C[C@H]1[C@@H](CCC(=O)N2CCN(c3ccnc4cc(Cl)ccc34)CC2)O[C@@H]2O[C@@]3(C)CC[C@H]4[C@H](C)CC[C@@H]1[C@@]24OO3 | – | – | 11%
C[C@@H]1CC[C@H]2[C@@H](C)C(=O)O[C@@H]3O[C@@]4(C)CC[C@@H]1[C@]32OO4 [ARTEMISININ] | 0.055 µM | > 4540 | –
COC12OOC3(C=C1C(=O)C(C)(C)C(=O)C2(C)C)CCN(C(=O)CC[C@H]1O[C@@H]2O[C@@]4(C)CC[C@H]5[C@H](C)CC[C@@H]([C@H]1C)[C@@]25OO4)CC3 (stereo partly drawn) | 0.0026 µM | 16400 | –
COC12OOC3(C=C1C(=O)C(C)(C)C(=O)C2(C)C)CCNCC3 (stereo not drawn) | > 0.25 µM | – | –
COC12OOC3(C=C1C(=O)C(C)(C)C(=O)C2(C)C)CCN(C(=O)CCC(=O)NCCCCN(CCCCNC(=O)CCC(=O)N1CCC2(C=C4C(=O)C(C)(C)C(=O)C(C)(C)C4(OC)OO2)CC1)C(=O)CCC(=O)NCCNc1ccnc2cc(Cl)ccc12)CC3 (stereo not drawn) | > 0.167 µM | – | –
C[C@H]1[C@@H](CCC(=O)NCCNc2ccnc3cc(Cl)ccc23)O[C@@H]2O[C@@]3(C)CC[C@H]4[C@H](C)CC[C@@H]1[C@@]24OO3 | – | – | 11%
COC12OOC3(C=C1C(=O)C(C)(C)C(=O)C2(C)C)CCN(C(=O)CCC(=O)NCC[C@H]1O[C@@H]2O[C@@]4(C)CC[C@H]5[C@H](C)CC[C@@H]([C@H]1C)[C@@]25OO4)CC3 (stereo partly drawn) | 0.124 µM | 144 | –
COC12OOC3(C=C1C(=O)C(C)(C)C(=O)C2(C)C)CCN(C(=O)CCC(=O)NCCCCN(CCCNC(=O)CCC(=O)N1CCC2(C=C4C(=O)C(C)(C)C(=O)C(C)(C)C4(OC)OO2)CC1)C(=O)CCC(=O)NCCNc1ccnc2cc(Cl)ccc12)CC3 (stereo not drawn) | > 0.167 µM | – | –
COC12OOC3(C=C1C(=O)C(C)(C)C(=O)C2(C)C)CCN(C(=O)CCC(=O)N(CCCCNC(=O)CC[C@H]1O[C@@H]2O[C@@]4(C)CC[C@H]5[C@H](C)CC[C@@H]([C@H]1C)[C@@]25OO4)CCCNC(=O)CC[C@H]1O[C@@H]2O[C@@]4(C)CC[C@H]5[C@H](C)CC[C@@H]([C@H]1C)[C@@]25OO4)CC3 (stereo partly drawn) | 0.0084 µM | 2110 | –
C[C@H]1[C@@H](CCC(=O)NCCCCN(CCCNC(=O)CC[C@H]2O[C@@H]3O[C@@]4(C)CC[C@H]5[C@H](C)CC[C@@H]([C@H]2C)[C@@]35OO4)C(=O)CCC(=O)NCCNc2ccnc3cc(Cl)ccc23)O[C@@H]2O[C@@]3(C)CC[C@H]4[C@H](C)CC[C@@H]1[C@@]24OO3 | – | – | 33%
